In brackets after ≈: the same amount, converted by molar mass.
Legend:
P. aeruginosa PAO1 [1] = test: Intrinsic MIC assay (CLSI broth microdilution); assay type: cell-based; conditions: Pseudomonas aeruginosa, 18 h; P. aeruginosa PAO1; compound alone, without EPI; MIC = lowest concentration inhibiting 90% of growth; read-out: Antibiotic Activity Against P. aeruginosa Intrinsic MIC
Text: As used herein, the term “minimum inhibitory concentration (MIC)” refers to the lowest concentration of a compound (e.g., an antibiotic) that prevents visible growth of a bacterium. Assays for measuring the MIC of a compound are known in the art, for example, as described herein. As used herein, the term “intrinsic MIC” refers the MIC of a compound (e.g., an antibiotic) for the particular bacterial species that has not been pre-exposed to the compound. Intrinsic MIC Assays MIC assays were conducted in accordance with Clinical and Laboratory Standards Institute (CLSI) guidelines for broth microdilution. A 96-well plate containing cation-adjusted Mueller-Hinton (CAMH broth with 2-fold serial dilution of compounds was inoculated with log-phase bacterial at 5×10^5 CFU/mL. The final volume in each well was 100 μL. Each compound was tested in duplicate. The microtiter plates were incubated in an aerobic environment for 18 hours at 37° C. Then the bacterial growth was tested by reading the plate with a VersaMax plate reader (Molecular Devices, Inc.) at 600 nm. The MIC was defined as the lowest compound concentration that inhibited 90% of bacteria growth. The intrinsic MIC of the experimental EPIs was tested with the method described. […] The following Gram-negative bacterial strains were included in these assays: Pseudomonas aeruginosa PAO1

P. aeruginosa PAO1 [2] = test: MIC assay in the presence of a bacterial efflux pump inhibitor (EPI); assay type: cell-based, Pseudomonas aeruginosa; conditions: P. aeruginosa PAO1; for Antibiotic Activity Against P. aeruginosa MIC with EPI: with 12.5 ug/ml of EPI (2S,4R)-4-(ammoniomethyl)-2-((6-(4-fluorophenyl)-1H-indole-2-carboxamido)methyl)pyrrolidin-1-ium; for Enhancement (intrinsic MIC versus MIC with EPI): fold enhancement with 12.5 ug/ml EPI
Procedure: The ability of a compound to produce an antibiotic effect can be determined using a method as described in Example 42. […] MIC assays were conducted in accordance with Clinical and Laboratory Standards Institute (CLSI) guidelines for broth microdilution. A 96-well plate containing cation-adjusted Mueller-Hinton (CAMH broth with 2-fold serial dilution of compounds was inoculated with log-phase bacterial at 5×10^5 CFU/mL. The final volume in each well was 100 μL. Each compound was tested in duplicate. The microtiter plates were incubated in an aerobic environment for 18 hours at 37° C. Then the bacterial growth was tested by reading the plate with a VersaMax plate reader (Molecular Devices, Inc.) at 600 nm. The MIC was defined as the lowest compound concentration that inhibited 90% of bacteria growth. MIC Assays in the Presence of a Bacterial Efflux Inhibitor The EPI assay for the purposes of these studies represents a MIC assay in which the MIC of the antibiotic against the bacteria is tested in the presence of an experimental efflux pump inhibitor (EPI). The highest concentration of the EPI present in the assay typically is ½ of the intrinsic MIC of the compound. […] Using serial dilutions of the EPI, its enhancement of antibiotic activity was then evaluated. The relative EPI activity was decided by comparing the MIC of the antibiotic in the presence of the EPI compound with the intrinsic MIC of the antibiotic alone. For comparative purposes, we generally used EPIs at concentration of 12.5 and 6.25 μg/ml against varying concentration of our test antibiotic.

E. coli 25922 = test: Intrinsic MIC assay (CLSI broth microdilution); assay type: cell-based, Escherichia coli; conditions: Escherichia coli, 18 h; E. coli 25922; compound alone, without EPI; read-out: Antibiotic Activity Against E. coli Intrinsic MIC
Text: As used herein, the term “minimum inhibitory concentration (MIC)” refers to the lowest concentration of a compound (e.g., an antibiotic) that prevents visible growth of a bacterium. Assays for measuring the MIC of a compound are known in the art, for example, as described herein. As used herein, the term “intrinsic MIC” refers the MIC of a compound (e.g., an antibiotic) for the particular bacterial species that has not been pre-exposed to the compound. Intrinsic MIC Assays MIC assays were conducted in accordance with Clinical and Laboratory Standards Institute (CLSI) guidelines for broth microdilution. A 96-well plate containing cation-adjusted Mueller-Hinton (CAMH broth with 2-fold serial dilution of compounds was inoculated with log-phase bacterial at 5×10^5 CFU/mL. The final volume in each well was 100 μL. Each compound was tested in duplicate. The microtiter plates were incubated in an aerobic environment for 18 hours at 37° C. Then the bacterial growth was tested by reading the plate with a VersaMax plate reader (Molecular Devices, Inc.) at 600 nm. The MIC was defined as the lowest compound concentration that inhibited 90% of bacteria growth. The intrinsic MIC of the experimental EPIs was tested with the method described. […] The following Gram-negative bacterial strains were included in these assays: Escherichia coli ATCC 25922

Row | SMILES | MIC (P. aeruginosa PAO1 [1]) [µg/mL] | Antibiotic Activity Against P. aeruginosa MIC with EPI (P. aeruginosa PAO1 [2]) [µg/mL] | MIC (E. coli 25922) [µg/mL] | Enhancement (intrinsic MIC versus MIC with EPI) (P. aeruginosa PAO1 [2])
1 | NC1CCCc2c1[nH]c1c(Br)cccc21 (stereo not drawn) [Example 17, 8-Bromo-2,3,4,9-tetrahydro-1H-carbazol-1-amine] | > 256 | 128 | 64 (≈ 241 µM) | (>2x)
2 | NC1CCCc2c1[nH]c1ccc(Br)cc21 (stereo not drawn) [Example 1, 6-Bromo-2,3,4,9-tetrahydro-1H-carbazol-1-amine] | 32 (≈ 121 µM) | 0.5 | 8 (≈ 30.2 µM) | (64x)
3 | N#Cc1ccc2[nH]c3c(c2c1)CCCC3N (stereo not drawn) [Example 16, 1-Amino-2,3,4,9-tetrahydro-1H-carb azole-6-carbonitrile] | > 256 | 32 | 256 (≈ 1210 µM) | (>8x)
4 | NC1CCCc2c1[nH]c1cccc(Br)c21 (stereo not drawn) [Example 5b, 5-Bromo-2,3,4,9-tetrahydro-1H-carbazol-1-amine] | 128 (≈ 483 µM) | 2 | 16 (≈ 60.3 µM) | (64x)
5 | NC1CCCc2c1[nH]c1ccc(-c3ccc(C(F)(F)F)cc3)cc21 (stereo not drawn) [Example 4, 6-(4-(Trifluoromethyl)phenyl)-2,3,4,9-tetrahydro-1H-carbazol-1-amine] | > 256 | 4 | 16 (≈ 48.4 µM) | (>64x)
6 | COc1ccc2[nH]c3c(c2c1)CCCC3N.Cl (stereo not drawn) [Example 18, 6-Methoxy-2,3,4,9-tetrahydro-1H-carbazol-1-amine Hydrogen Chloride Salt] | > 256 | 32 | > 256 | (>8x)
7 | NC1CCCc2c1[nH]c1ccc(C(F)(F)F)cc21 (stereo not drawn) [Example 14, 6-(Trifluoromethyl)-2,3,4,9-tetrahydro-1H-carbazol-1-amine] | 64 (≈ 252 µM) | 2 | 64 (≈ 252 µM) | (32x)
8 | CC(C)C1Cc2c([nH]c3ccc(Br)cc23)C(N)C1 (stereo not drawn) [Example 30, 6-Bromo-3-isopropyl-2,3,4,9-tetrahydro-1H-carbazol-1-amine] | 64 (≈ 208 µM) | 8 | 4 (≈ 13 µM) | (8x)
9 | COc1ccc(-c2ccc3[nH]c4c(c3c2)CCCC4N)cc1 (stereo not drawn) [Example 3, 6-(4-Methoxyphenyl)-2,3,4,9-tetrahydro-1H-carbazol-1-amine] | > 256 | 16 | 32 (≈ 109 µM) | (>16x)
10 | CCOC(=O)C1Cc2c([nH]c3ccc(Br)cc23)C(N)C1 (stereo not drawn) [Example 27, Ethyl 1-amino-6-bromo-2,3,4,9-tetrahydro-1H-carbazole-3-carboxylate] | > 256 | 32 | 16 (≈ 47.4 µM) | (>8x)
11 | CC(C)C1Cc2c([nH]c3ccc(Cl)c(Cl)c23)C(N)C1 (stereo not drawn) [Example 37, 5,6-Dichloro-3-isopropyl-2,3,4,9-tetrahydro-1H-carbazol-1-amine] | 128 (≈ 431 µM) | 4 | 4 (≈ 13.5 µM) | (32x)
12 | NC1CCCc2c1[nH]c1cc(Cl)c(Cl)cc21 (stereo not drawn) [Example 21, 6,7-Dichloro-2,3,4,9-tetrahydro-1H-carbazol-1-amine] | 64 (≈ 251 µM) | 4 | 8 (≈ 31.4 µM) | (16x)

The remaining lines, values ahead:

Row | MIC (P. aeruginosa PAO1 [1]) [µg/mL] | Antibiotic Activity Against P. aeruginosa MIC with EPI (P. aeruginosa PAO1 [2]) [µg/mL] | MIC (E. coli 25922) [µg/mL] | Enhancement (intrinsic MIC versus MIC with EPI) (P. aeruginosa PAO1 [2]) | SMILES
13 | 256 | 256 | 128 | – | Cl.NC(=O)C1Cc2c([nH]c3ccc(Br)cc23)C(N)C1 (stereo not drawn) [Example 34, 1-Amino-6-bromo-2,3,4,9-tetrahydro-1H-carbazole-3-carboxamide Hydrogen Chloride Salt]
14 | > 256 | >256 | > 256 | (1x) | NCCNC(=O)C1Cc2c([nH]c3ccc(Br)cc23)C(N)C1 (stereo not drawn) [Example 32, 1-Amino-N-(2-aminoethyl)-6-bromo-2,3,4,9-tetrahydro-1H-carb azole-3-carboxamide]
15 | 256 (≈ 867 µM) | 32 | 64 (≈ 217 µM) | (8x) | NC1CC(CO)Cc2c1[nH]c1ccc(Br)cc21 (stereo not drawn) [Example 29, (1-Amino-6-bromo-2,3,4,9-tetrahydro-1H-carbazol-3-yl)methanol]
16 | 128 (≈ 580 µM) | 1 | 16 (≈ 72.5 µM) | (16x) | NC1CCCc2c1[nH]c1ccc(Cl)cc21 (stereo not drawn) [Example 13, 6-Chloro-2,3,4,9-tetrahydro-1H-carbazol-1-amine]
17 | 256 (≈ 917 µM) | 64 | 64 (≈ 229 µM) | (4x) | Cn1c2c(c3cc(Br)ccc31)CCCC2N (stereo not drawn) [Example 19, 6-Bromo-9-methyl-2,3,4,9-tetrahydro-1H-carbazol-1-amine]
18 | > 256 | >64 | > 256 | (4x) | CC(=O)NC1CCCc2c1[nH]c1ccc(Br)cc21 (stereo not drawn) [Example 8, N-(6-Bromo-2,3,4,9-tetrahydro-1H-carbazol-1-yl)acetamide]
19 | 256 (≈ 703 µM) | 64 | 64 (≈ 176 µM) | (4x) | NC1CC(CN2CCOCC2)Cc2c1[nH]c1ccc(Br)cc21 (stereo not drawn) [Example 31, 6-Bromo-3-(morpholinomethyl)-2,3,4,9-tetrahydro-1H-carbazol-1-amine]

Source: patent US11458121B2, “Therapeutic compounds and methods to treat infection” (priority 2017, dated 2022)
